Several values for one entry are separate records, joined by “and”; a condition that tells them apart may be missing. Identical values can stand only once. Entries after “also recorded” stand apart in the source; their conditions may differ.
Experiments:
[1] = tested on: Carybdea alata venom in isolated red blood cells (2% RBC); format: cell-based, human
[2] = tested on: Chironex fleckeri venom in isolated red blood cells (2% RBC); format: cell-based, human
[3] = tested on: Chironex fleckeri venom in whole blood; format: cell-based, human
[4] = tested on: Carybdea alata venom in isolated red blood cells (2% RBC); assay: Hemolysis induced by Carybdea alata venom in 2% RBC; format: cell-based, human
[5] = tested on: Chironex fleckeri venom in whole blood; assay: Hemolysis induced by Chironex fleckeri venom in whole blood; format: cell-based, human; settings: 5 mM zinc gluconate, compared to untreated cells, FIG. 6
[6] = tested on: Chironex fleckeri venom in whole blood; assay: Cytokine production in whole blood exposed to Chironex fleckeri venom; format: cell-based, human; settings: CF venom, 5 mM zinc gluconate, FIG. 7
[7] = tested on: Chironex fleckeri venom in whole blood; assay: Catecholamine and histamine response in whole blood exposed to Chironex fleckeri venom; format: cell-based, human; settings: CF venom, 5 mM zinc gluconate, FIG. 8
Chironex fleckeri venom = assay: Mouse envenomation model with echocardiography/electrocardiography, survival, plasma hemoglobin and potassium (Example 6); format: in vivo
cubozoan porin [8] = settings: pig, in vivo
cubozoan porin [9] = assay: Human subjects envenomated by a cubozoan porin, intravenous zinc gluconate (Example 8); format: in vivo; settings: IV infusion 2.5 to 4 mg per day
cubozoan porin [10] = assay: Human subjects envenomated by a cubozoan porin, subcutaneous bolus then continuous IV (Example 9); format: in vivo; settings: subcutaneous bolus 5 mL of 100 mM, then IV 5 mM
cubozoan porin [11] = assay: Human subjects envenomated by a cubozoan porin, transdermal patch (Example 10); format: in vivo; settings: iontophoresis, 5 mM at 40 mAmp/min
bacterial porin = assay: Human subjects exposed to a bacterial porin, intravenous (Example 11); format: in vivo; settings: IV 2.5 to 4 mg per day
Description: In this Example, human subjects are treated with zinc gluconate intravenously after being exposed to a bacterial porin. […] Samples are removed to monitor levels of potassium, cytokines, histamine, and catecholamine, in the blood serum.

viral porin = assay: Human subjects exposed to a viral porin, intravenous (Example 12); format: in vivo; settings: IV 2.5 to 4 mg per day
Description: In this Example, human subjects are treated with zinc gluconate intravenously after being exposed to a viral porin. […] Samples are removed to monitor levels of potassium, cytokines, histamine, and catecholamine, in the blood serum.

[12] = tested on: mushroom pore-forming toxin; assay: Human subjects exposed to a mushroom pore-forming toxin, intravenous (Example 13); format: in vivo; settings: IV 2.5 to 4 mg per day
Description: In this Example, human subjects are treated with zinc gluconate intravenously after being exposed to a mushroom pore-forming toxin. […] Samples are removed to monitor levels of potassium, cytokines, histamine, and catecholamine, in the blood serum.

hemolytic toxins = settings: 10 mM D-lactulose; cited from earlier work
[13] = mice, Zn Gluc then 2000 U venom IV, cardiac blood at death

zinc gluconate
potassium efflux induced by Carybdea alata venom [1]: fully inhibited
potassium efflux induced by Chironex fleckeri venom [2]: fully inhibited
potassium efflux induced by Chironex fleckeri venom [3]: inhibited
hemolysis induced by Carybdea alata venom ([4]; 2% RBC, 5 mM zinc gluconate): substantially inhibited
decrease of the total hemolytic capacity of the venom dose ([4]; venom dose 6.4 U/ml): more than 10 fold
hemolysis induced by Chironex fleckeri venom [5]: substantially less severe hemolysis
production of EGF [6]: reduced
production of G-CSF [6]: reduced
production of GRO [6]: reduced
production of IFNα2 [6]: reduced
production of PDGF-AA [6]: reduced
production of TNFα [6]: reduced
catecholamine response [7]: reduced
histamine response [7]: reduced
EKG recovery (Chironex fleckeri venom; Mouse 2010-6-09-2, FIG. 10): recovered within thirty seconds
time of cessation of ventricular contraction (Chironex fleckeri venom; Mouse 2010-6-09-2, FIG. 10): 10.5 min
time of recovery of ventricular contraction (Chironex fleckeri venom; Mouse 2010-6-09-2, FIG. 10): 11 min
rebounds of ventricular contraction subsequent to periods of pulseless electrical activity (PEA) (Chironex fleckeri venom; mice pre-injected with zinc gluconate, in three mice): frequently observed
Hemolysis (Chironex fleckeri venom; [13]): 6% and 4% and 2% and 3%
Plasma Hgb (Chironex fleckeri venom; [13]): 860 mg/100 mL and 673 mg/100 mL and 471 mg/100 mL
survival rates (Chironex fleckeri venom; relative to the untreated mice, FIG. 11): higher survival rates
duration of survival post-envenomation (survival times) (Chironex fleckeri venom; relative to the untreated mice, intravenous, FIG. 11, P<0.0001): longer durations of survival; also recorded: significantly prolonged
normal EKG conductive sequences maintained (Chironex fleckeri venom; zinc treated animals exposed to cubozoan PFT): for longer periods
severity of symptoms (cubozoan porin [8]): reduce the severity of symptoms
survival (cubozoan porin [8]): siginificantly improve survival
likelihood of a lethal outcome (cubozoan porin [9]): decrease the likelihood a lethal outcome
severity of physiological symptoms associated with the venom poisoning (cubozoan porin [9]): reduce the severity of physiological symptoms
likelihood of a lethal outcome (cubozoan porin [10]): decrease the likelihood a lethal outcome
severity of physiological symptoms associated with the venom poisoning (cubozoan porin [10]): reduce the severity of physiological symptoms
likelihood of a lethal outcome (cubozoan porin [11]): decrease the likelihood a lethal outcome
severity of physiological symptoms associated with the venom poisoning (cubozoan porin [11]): reduce the severity of physiological symptoms
health of the subject (bacterial porin): improve the health of the subject
severity of physiological symptoms associated with porin exposure (bacterial porin): reduce the severity of physiological symptoms
health of the subject (viral porin): improve the health of the subject
severity of physiological symptoms associated with porin exposure (viral porin): reduce the severity of physiological symptoms
health of the subject [12]: improve the health of the subject
severity of physiological symptoms associated with porin exposure [12]: reduce the severity of physiological symptoms

OC[C@H]1O[C@@H](O[C@@H]2[C@@H](CO)O[C@](O)(CO)[C@H]2O)[C@H](O)[C@@H](O)[C@H]1O [D-lactulose]
Hemolysis (hemolytic toxins): dramatic absence of hemolysis
